Values after ≈ are worked out from the molar mass of the structure shown. Values joined by “and” are separate entries in the source; they are usually repeats but may differ in a detail not shown here. Equal values may be shown once. Blank lines part the entries; values can stand above or below the molecule they belong to.
Legend:
Test in all cases: ≥ marks a high value that may be exact or a test limit, other limits are often not marked, values filed in µg/mL are converted to µM
[1] = tested on: Acinetobacter baumannii CICC 22934
[2] = tested on: Acinetobacter baumannii
[3] = tested on: Bacillus cereus AS1.126
[4] = tested on: Bacillus cereus
[5] = tested on: Enterobacter cloacae CGMCC 1.58
[6] = tested on: Enterobacter cloacae
[7] = tested on: Enterococcus faecalis CGMCC 1.595
[8] = tested on: Enterococcus faecium CGMCC 1.2334
[9] = tested on: Enterococcus faecium
[10] = tested on: Escherichia coli AS1.349
[11] = tested on: Escherichia coli ATCC 11775
[12] = tested on: Escherichia coli
[13] = tested on: Klebsiella aerogenes CGMCC 1.876
[14] = tested on: Klebsiella aerogenes
[15] = tested on: Klebsiella pneumoniae subsp. pneumoniae CGMCC 1.176
[16] = tested on: Klebsiella pneumoniae
[17] = tested on: Lactococcus lactis AS1.1690
[18] = tested on: Lactococcus lactis
[19] = tested on: Proteus mirabilis CICC 22931
[20] = tested on: Pseudomonas aeruginosa CGMCC 1.860
[21] = tested on: Pseudomonas aeruginosa
[22] = tested on: Pseudomonas fluorescens
[23] = tested on: Staphylococcus aureus AS1.72
[24] = tested on: Staphylococcus aureus ATCC 12600
[25] = tested on: Staphylococcus aureus
[26] = tested on: Staphylococcus epidermidis CICC 23664
[27] = tested on: Staphylococcus epidermidis
[28] = tested on: Bacillus subtilis 168
[29] = tested on: Candida albicans F7-39/IDE99
[30] = tested on: Escherichia coli B
[31] = tested on: Micrococcus luteus CCM 144
[32] = tested on: Candida albicans IOC 4558
[33] = tested on: Candida albicans MDM8
[34] = tested on: Candida glabrata IOC 4565
[35] = tested on: Candida krusei IOC 4559
[36] = tested on: Candida parapsilosis IOC 4564
[37] = tested on: Candida tropicalis IOC 4560
[38] = tested on: Trichosporon sp. IOC 4569
[39] = tested on: Bacillus subtilis ATCC 6633
[40] = tested on: Escherichia coli ATCC 25922
[41] = tested on: Klebsiella pneumoniae ATCC 10031
[42] = tested on: Micrococcus luteus ATCC 10240
[43] = tested on: Pseudomonas aeruginosa ATCC 27853
[44] = tested on: Salmonella enterica subsp. enterica serovar Typhimurium ATCC 14028
[45] = tested on: Shigella dysenteriae ATCC 9752
[46] = tested on: Staphylococcus aureus ATCC 6538P
[47] = tested on: Staphylococcus epidermidis ATCC 12228
[48] = tested on: Escherichia coli HP101BA 7601c
[49] = tested on: Klebsiella pneumoniae PTCC 1388
[50] = tested on: Salmonella typhimurium PTCC 1428
[51] = tested on: Staphylococcus aureus PTCC 1431
[52] = tested on: Streptococcus agalactiae PTCC 1365
[53] = tested on: Streptococcus dysgalactiae PTCC 1074

MIC [1]: ≥ 100 µM
MIC [2]: ≥ 50 µM
MIC [3]: 11.6 µM (≈ 25 µg/mL)
MIC [4]: 11.6 µM (≈ 25 µg/mL)
MIC [5]: ≥ 500 µM
MIC [6]: ≥ 50 µM
MIC [7]: ≥ 33.3 µM
MIC [8]: ≥ 42.4 µM
MIC [9]: ≥ 50 µM
MIC [10]: ≥ 500 µM
MIC [11]: 3 µM (≈ 6.47 µg/mL)
MIC [12]: > 100 µM and 50 µM
MIC [13]: ≥ 500 µM
MIC [14]: ≥ 50 µM
MIC [15]: ≥ 500 µM
MIC [16]: > 50 µM
MIC [17]: 15.6 µM (≈ 33.6 µg/mL)
MIC [18]: 11.6 µM (≈ 25 µg/mL)
MIC [19]: ≥ 100 µM
MIC [20]: ≥ 380 µM
MIC [21]: > 50 µM
MIC [22]: ≥ 50 µM
MIC [23]: ≥ 58 µM
MIC [24]: 6 µM (≈ 12.9 µg/mL)
MIC [25]: 58 µM and 50 µM
MIC [26]: 7.2 µM (≈ 15.5 µg/mL)
MIC [27]: ≥ 50 µM
Compound: CC(C)C[C@H](NC(=O)CNC(=O)[C@H](Cc1ccccc1)NC(=O)[C@H](CCCN=C(N)N)NC(=O)[C@H](CCCN=C(N)N)NC(=O)CNC(=O)[C@H](Cc1cnc[nH]1)NC(=O)[C@H](CCCN=C(N)N)NC(=O)CNC(=O)[C@@H](NC(=O)[C@H](C)NC(=O)[C@@H](N)CO)C(C)C)C(=O)N[C@@H](CCCN=C(N)N)C(=O)N[C@@H](CCCCN)C(=O)N[C@@H](Cc1cnc[nH]1)C(=O)N[C@@H](CCCN=C(N)N)C(=O)N[C@@H](CCCCN)C(=O)N[C@@H](Cc1cnc[nH]1)C(=O)O [SAVGRHGRRFGLRKHRKH]

MIC [28]: 3.3 µM (≈ 9.08 µg/mL)
MIC [29]: 24.2 µM (≈ 66.6 µg/mL)
MIC [30]: ≥ 63.3 µM
MIC [31]: 1.6 µM (≈ 4.4 µg/mL)
MIC [21]: > 100 µM
MIC [25]: > 100 µM
Compound: CC[C@H](C)[C@@H]1NC(=O)[C@H](CCCCN)NC(=O)[C@H](CCCCN)NC(=O)[C@@H]2CSSC[C@H](NC(=O)[C@H](C)NC(=O)[C@H](C(C)C)NC(=O)[C@@H](NC(=O)[C@@H](NC(=O)[C@@H](NC(=O)[C@H](CCCCN)NC(=O)[C@H](CCCCN)NC(=O)[C@@H](NC(=O)[C@H](CC(=O)O)NC(=O)[C@@H](N)CC(C)C)C(C)C)[C@@H](C)CC)[C@@H](C)CC)CSSC[C@@H](C(=O)N3CCC[C@H]3C(=O)N[C@@H](CCCCN)C(=O)O)NC1=O)C(=O)N[C@@H](CCCCN)C(=O)N[C@@H]([C@@H](C)CC)C(=O)N[C@@H](CCCCN)C(=O)N1CCC[C@H]1C(=O)N[C@@H](CC(N)=O)C(=O)N1CCC[C@H]1C(=O)N[C@@H](C)C(=O)N2 [LDVKKIICVACKIKPNPACKKICPK]

MIC [39]: 10.8 µM (≈ 12.5 µg/mL)
MIC [40]: 10.8 µM (≈ 12.5 µg/mL)
MIC [41]: 5.46 µM (≈ 6.29 µg/mL)
MIC [42]: 21.7 µM (≈ 25 µg/mL)
MIC [43]: 43.3 µM (≈ 50 µg/mL)
MIC [44]: 21.7 µM (≈ 25 µg/mL)
MIC [45]: 10.8 µM (≈ 12.5 µg/mL)
MIC [46]: 2.69 µM (≈ 3.1 µg/mL)
MIC [47]: 10.8 µM (≈ 12.5 µg/mL)
Compound: CC(C)C[C@H](NC(=O)[C@H](CCCCN)NC(=O)[C@H](CC(C)C)NC(=O)[C@H](CC(C)C)NC(=O)[C@H](Cc1c[nH]c2ccccc12)NC(=O)[C@H](CCCCN)NC(=O)[C@H](CC(C)C)NC(=O)[C@H](CC(C)C)NC(=O)[C@@H](N)CCCCN)C(N)=O [KLLKWLLKL]

The remaining lines, values behind:

Compound: CC[C@H](C)[C@H](N)C(=O)N[C@H](C(=O)N[C@H](C(=O)N[C@@H](CCC(N)=O)C(=O)N[C@@H](Cc1ccc(O)cc1)C(=O)N[C@@H](CCC(=O)O)C(=O)NCC(=O)N[C@@H](Cc1cnc[nH]1)C(=O)N[C@@H](CCCCN)C(=O)N[C@@H](Cc1cnc[nH]1)C(=O)O)[C@@H](C)CC)[C@@H](C)CC [IIIQYEGHKH]
MIC [32]: 16.5 µM (≈ 20.4 µg/mL)
MIC [33]: ≥ 33.5 µM
MIC [34]: 16.5 µM (≈ 20.4 µg/mL)
MIC [35]: ≥ 33.5 µM
MIC [36]: ≥ 33.5 µM
MIC [37]: 16.5 µM (≈ 20.4 µg/mL)
MIC [38]: 2.1 µM (≈ 2.6 µg/mL)

Compound: CC(C)C[C@H](NC(=O)[C@@H](NC(=O)CNC(=O)[C@H](C)NC(=O)[C@H](CC(C)C)NC(=O)[C@@H](NC(=O)[C@@H]1CCCN1C(=O)[C@H](CC(C)C)NC(=O)[C@@H](N)Cc1ccccc1)C(C)C)C(C)C)C(=O)N[C@@H](CO)C(=O)N[C@@H](CCCN=C(N)N)C(=O)N[C@@H](C)C(N)=O [FLPVLAGVLSRA]
MIC [48]: 27.8 µM (≈ 34.5 µg/mL)
MIC [49]: 28.2 µM (≈ 35.1 µg/mL)
MIC [50]: 25.6 µM (≈ 31.8 µg/mL)
MIC [51]: ≥ 33.9 µM
MIC [52]: 24.5 µM (≈ 30.5 µg/mL)
MIC [53]: 17.5 µM (≈ 21.8 µg/mL)
